Assay results: PMC8356643 (2019)

Legend:
[1] = tested on: cMyc (DNA, G4) TGAGGGTGGGTAGGGTGGGTAA; assay: fluorescence titration; settings: 100 mM K+; 6 mM Na2HPO4, 2 mM NaH2PO4 7.1, 1 mM Na2EDTA, 100 mM KCl
[2] = tested on: THM (DNA, G4) GGGTTGGGTTGGGTTGGG; assay: UV-vis titration; settings: 5 mM K+, 95 mM Li+; 10 mM lithium cacodylate 7.2, 95 mM LiCl, 5 mM KCl
[3] = tested on: cMyc (DNA, G4) TGAGGGTGGGTAGGGTGGGTAA; assay: UV-vis titration; settings: 100 mM K+; 6 mM Na2HPO4, 2 mM NaH2PO4 7.1, 1 mM Na2EDTA, 100 mM KCl
[4] = tested on: THM (DNA, G4) GGGTTGGGTTGGGTTGGG; assay: fluorescence titration; settings: 5 mM K+, 95 mM Li+; 10 mM lithium cacodylate 7.2, 95 mM LiCl, 5 mM KCl
[5] = tested on: THM (DNA, G4) GGGTTGGGTTGGGTTGGG; assay: X-ray crystallography; settings: K+; 2.4 Å; end-stacking to the 3' G-tetrad
[6] = tested on: VEGF (DNA, G4) GGGAGGGTTGGGGTGGG; assay: UV-vis titration; settings: 5 mM K+, 95 mM Li+; 10 mM lithium cacodylate 7.2, 95 mM LiCl, 5 mM KCl; parallel dimer
[7] = tested on: THM (DNA, G4) GGGTTGGGTTGGGTTGGG; assay: CD melting; settings: 5 mM K+; 2 eq NMM
[8] = tested on: G4TERT (DNA, G4) AGGGGAGGGGCTGGGAGGGC; assay: UV-vis titration; settings: 5 mM K+, 95 mM Li+; 10 mM lithium cacodylate 7.2, 95 mM LiCl, 5 mM KCl; parallel dimer
[9] = tested on: THM (DNA, G4) GGGTTGGGTTGGGTTGGG; assay: ITC; settings: 5 mM K+, 95 mM Li+; 10 mM lithium cacodylate 7.2, 95 mM LiCl, 5 mM KCl

- Ka [1]: 7.4 ± 2 × 10^6 M^-1
- Ka [2]: 30 ± 20 × 10^6 M^-1
- Ka [3]: 19 ± 6 × 10^6 M^-1
- Ka [4]: 50 ± 20 × 10^6 M^-1
- binding [5]: yes
- Ka [6]: 10. ± 2 × 10^6 M^-1
- ΔT [7]: 23 ± 2 °C
- Ka [8]: 1.7 ± 0.7 × 10^6 M^-1
- Ka [9]: 70 ± 20 × 10^6 M^-1
Structure (SMILES): CCc1c(C)c2cc3nc(cc4nc(cc5c(CC)c(C)c(cc1[nH]2)n5C)C(C)=C4CCC(=O)O)C(CCC(=O)O)=C3C
